Experimental data: patent US8163909B2, “Substituted hydroxyethyl amine compounds as beta-secretase modulators and methods of use” (Amgen Inc., priority 2007, dated 2012)
Like-named read-outs stand apart in the source and are kept apart here.

How the values were obtained:
[1] = system: Aβ40 in conditioned medium of cells stably expressing Amyloid Precursor Protein (APP); experiment: In vitro BACE cell-based assay (Aβ40 in conditioned medium, sandwich ELISA);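 note: compounds added as a dilution series, secreted peptide quantified by europium time-resolved fluorescence readout, potency fitted from percent of control versus compound concentration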
[2] = target: Beta Secretase enzyme (BACE) (Homo sapiens, UniProt P56817); experiment: In vitro enzymatic BACE FRET (fluorescence resonance energy transfer) assay; format: biochemical;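 note: fluorescence read after 1 h with 50 nM quenched peptide substrate spanning the BACE cleavage site, in pH 4.2 acetate buffer containing 10% DMSO and nonionic detergent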
Beta Secretase enzyme (BACE), sequence (P56817 46-501): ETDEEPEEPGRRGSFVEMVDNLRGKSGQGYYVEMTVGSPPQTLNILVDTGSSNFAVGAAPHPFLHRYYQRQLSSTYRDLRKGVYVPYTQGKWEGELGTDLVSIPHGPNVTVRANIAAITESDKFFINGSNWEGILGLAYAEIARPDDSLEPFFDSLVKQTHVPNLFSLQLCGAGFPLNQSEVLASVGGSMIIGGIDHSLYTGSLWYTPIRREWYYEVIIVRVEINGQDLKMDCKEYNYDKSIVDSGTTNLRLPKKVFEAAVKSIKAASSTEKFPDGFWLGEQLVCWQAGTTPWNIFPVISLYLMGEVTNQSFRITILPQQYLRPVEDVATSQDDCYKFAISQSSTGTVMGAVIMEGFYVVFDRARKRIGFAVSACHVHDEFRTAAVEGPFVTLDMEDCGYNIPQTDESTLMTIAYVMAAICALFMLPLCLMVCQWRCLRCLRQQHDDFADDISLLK

CYP2D6 = CYP2D6 (Homo sapiens, UniProt P10635); experiment: CYP2D6 inhibition assay (bufuralol, pooled human liver microsomes)
CYP2D6, sequence (P10635 whole entry): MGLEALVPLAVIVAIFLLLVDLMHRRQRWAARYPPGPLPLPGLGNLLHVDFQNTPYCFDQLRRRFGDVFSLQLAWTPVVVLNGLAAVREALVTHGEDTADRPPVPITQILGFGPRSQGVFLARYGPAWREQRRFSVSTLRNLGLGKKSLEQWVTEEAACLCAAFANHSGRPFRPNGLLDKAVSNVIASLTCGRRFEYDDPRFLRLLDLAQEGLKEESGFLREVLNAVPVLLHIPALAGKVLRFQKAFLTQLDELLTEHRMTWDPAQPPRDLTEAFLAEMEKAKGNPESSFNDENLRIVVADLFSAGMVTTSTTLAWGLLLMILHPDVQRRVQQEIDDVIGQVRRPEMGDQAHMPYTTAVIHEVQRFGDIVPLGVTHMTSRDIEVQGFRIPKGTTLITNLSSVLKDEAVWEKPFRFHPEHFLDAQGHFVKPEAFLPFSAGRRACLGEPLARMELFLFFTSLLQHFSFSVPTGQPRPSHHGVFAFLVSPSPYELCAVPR

[3] = Microsomal stability assay, human liver microsomes;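 note: pooled human liver microsomes at 0.25 mg/mL with 1 µM compound and NADPH at 37 °C, pH 7.4, for 30 min, unchanged parent quantified by LC-MS/MS against the 0 min sample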
[4] = Microsomal stability assay, rat liver microsomes;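 note: rat liver microsomes (0.25 mg/mL) with about 1 µM compound plus 1 mM NADPH, pH 7.4, 37 °C for 30 min, parent left measured by LC-MS/MS against 0 min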
[5] = Homo sapiens, HEK293, HEK cell-based assay, IC50's in uM, read-out: HEK cell assay
[6] = BACE enzyme assay, IC50's in uM, read-out: BACE1 FRET assay
[7] = 2D6 IC50 (uM), CYP enzyme inhibition
[8] = Homo sapiens, HEK293, Table 2, HEK cells, read-out: HEK cell assay
[9] = Table 2, read-out: BACE1 FRET assay
[10] = 2D6 IC50, CYP enzyme inhibition
[11] = Homo sapiens, HEK293, HEK cells, read-out: HEK cell assay
[12] = BACE enzyme assay, read-out: BACE1 FRET assay
[13] = Homo sapiens, HEK293, HEK cells, read-out: HEK cell assay (IC50)
[14] = read-out: BACE1 FRET assay (IC50)
[15] = Homo sapiens, HEK293, HEK cell-based assay IC50, read-out: HEK cell assay
[16] = BACE enzyme assay IC50, read-out: BACE1 FRET assay
[17] = Homo sapiens, HEK293, cell-based assay, HEK cells, IC50's in uM, read-out: HEK cell assay
[18] = HEK cells, cell-based assay, read-out: HEK cell assay (IC50)
[19] = BACE enzyme FRET assay, read-out: BACE1 FRET assay (IC50)
[20] = BACE enzyme assay, read-out: BACE1 FRET assay (IC50)

Compound: C#Cc1cc(F)cc(C[C@H](NC(=O)[C@@H](C)OC)[C@H](O)CN[C@H]2CC3(CCC3)Oc3ncc(CC(C)(C)C)cc32)c1 [Example 834, (2R)-N-((1S,2R)-3-(((4′S)-6′-(2,2-dimethylpropyl)-3′,4′-dihydrospiro[cyclobutane-1,2′-pyrano[2,3-b]pyridin]-4′-yl)amino)-1-(3-ethynyl-5-fluorobenzyl)-2-hydroxypropyl)-2-methoxypropanamide]
- IC50 [1, 5]: 0.011 µM
- IC50 [2, 6]: 0.005 µM
- IC50 (CYP2D6; [7]): 2.5 µM
- HLM ([3]; human liver microsomal data): 37 µL/min/mg
- RLM ([4]; rat liver microsomal data): 98 µL/min/mg

Compound: CO[C@@H](C)C(=O)N[C@@H](Cc1ccc2c(c1)OCO2)[C@H](O)CN[C@H]1CC2(CCC2)Oc2c1cc(CC(C)(C)C)nc2N(C)C [compound 443]
- IC50 [1, 8]: 0.175 µM
- IC50 [2, 9]: 0.065 µM
- HLM ([3]; human liver microsomal data): 190 µL/min/mg
- RLM ([4]; rat liver microsomal data): 232 µL/min/mg

Compound: CO[C@H](C)C(=O)N[C@@H](Cc1cc(F)cc(F)c1)[C@H](O)CN[C@H]1CC2(CCC2)Oc2c1cc(CC(C)C)cc2-n1ccnc1 [compound 461]
- IC50 [1, 8]: 0.028 µM
- IC50 [2, 9]: 0.026 µM
- IC50 (CYP2D6; [10]): 2.2 µM
- HLM ([3]; human liver microsomal data): 28 µL/min/mg
- RLM ([4]; rat liver microsomal data): 126 µL/min/mg

Compound: CO[C@H](C)C(=O)N[C@@H](Cc1cccc(F)c1)[C@H](O)CN[C@H]1CC2(CCC2)Oc2c1cc(CC(C)(C)C)nc2-c1ccncc1 [compound 533]
- IC50 [1, 11]: 0.044 µM
- IC50 [2, 12]: 0.013 µM
- IC50 (CYP2D6; [7]): 1.4 µM
- HLM ([3]; human liver microsomal data): 29 µL/min/mg
- RLM ([4]; rat liver microsomal data): 163 µL/min/mg

Compound: COCC(=O)N[C@@H](Cc1cccc(F)c1)[C@H](O)CN[C@H]1CC2(CCC2)Oc2c1cc(Cl)cc2-n1ccnc1 [compound 553]
- IC50 [2, 12]: 0.146 µM
- HLM ([3]; human liver microsomal data): 47 µL/min/mg
- RLM ([4]; rat liver microsomal data): 86 µL/min/mg

Compound: COCC(=O)N[C@@H](Cc1ccc2c(c1)OCO2)[C@H](O)CN[C@H]1CC2(CCC2)Oc2ccc(C[C@@H](C)F)cc21 [compound 558]
- IC50 [1, 11]: 0.336 µM
- IC50 [2, 12]: 0.25 µM
- HLM ([3]; human liver microsomal data): 167 µL/min/mg
- RLM ([4]; rat liver microsomal data): 362 µL/min/mg

Compound: COCC(=O)N[C@@H](Cc1cc(F)cc(F)c1)[C@H](O)CN[C@H]1CC2(CCC2)Oc2c1cc(Cl)cc2-n1ccnc1 [compound 581]
- IC50 [1, 13]: 0.075 µM
- IC50 [2, 14]: 0.081 µM
- HLM ([3]; human liver microsomes): 91 µL/min/mg
- RLM ([4]; rat liver microsomes): 124 µL/min/mg

Compound: CO[C@H](C)C(=O)N[C@@H](Cc1cc(F)cc(F)c1)[C@H](O)CN[C@H]1CC2(CCC2)Oc2c1cc(CC(C)(C)C)nc2-c1ccncc1 [compound 583]
- IC50 [1, 13]: 0.03 µM
- IC50 [2, 14]: 0.015 µM
- IC50 (CYP2D6; 2D6 IC50, CYP2D6 inhibition): 1.2 µM
- HLM ([3]; human liver microsomes): 14 µL/min/mg
- RLM ([4]; rat liver microsomes): 80 µL/min/mg

Compound: CO[C@H](C)C(=O)N[C@@H](Cc1cc(F)cc(F)c1)[C@H](O)CN[C@H]1CC2(CCC2)Oc2c(-c3ccncc3)cc(CC(C)C)cc21 [compound 587]
- IC50 [1, 13]: 0.006 µM
- IC50 [2, 14]: 0.012 µM
- IC50 (CYP2D6; 2D6 IC50, CYP2D6 inhibition): 2.1 µM
- HLM ([3]; human liver microsomes): 29 µL/min/mg
- RLM ([4]; rat liver microsomes): 73 µL/min/mg

Compound: CO[C@H](C)C(=O)N[C@@H](Cc1cc(F)cc(F)c1)[C@H](O)CN[C@H]1CC2(CCC2)Oc2c(-c3ccncc3)cc(CC(C)(C)F)cc21 [compound 590]
- IC50 [1, 13]: 0.007 µM
- IC50 [2, 14]: 0.024 µM
- IC50 (CYP2D6; 2D6 IC50, CYP2D6 inhibition): 0.6 µM
- HLM ([3]; human liver microsomes): 60 µL/min/mg
- RLM ([4]; rat liver microsomes): 105 µL/min/mg

Compound: CCOCC(=O)N[C@@H](Cc1ccc2c(c1)OCO2)[C@H](O)CN[C@H]1CC2(CCC2)Oc2ncc(CC(C)C)cc21 [compound 720]
- IC50 [1, 15]: 0.134 µM
- IC50 [2, 16]: 0.057 µM

Compound: CC(=O)N[C@@H](Cc1cc(F)cc(F)c1)[C@H](O)CN[C@H]1CC(C)(C)N2CCOc3cc(CC(C)(C)C)cc1c32 [compound 725]
- IC50 [1, 15]: 0.178 µM
- IC50 [2, 16]: 0.059 µM

Compound: CCc1cnc2c(c1)[C@@H](NC[C@@H](O)[C@H](Cc1cc(F)cc(-c3nccs3)c1)NC(=O)COC)CC1(CCC1)O2 [compound 728]
- IC50 [1, 15]: 0.108 µM
- IC50 [2, 16]: 0.03 µM

Compound: COCC(=O)N[C@@H](Cc1cc(F)cc(-c2nccn2C)c1)[C@H](O)CN[C@H]1CC2(CCC2)Oc2ncc(CC(C)(C)C)cc21 [compound 740, N-((1S,2R)-3-(((4′S)-6′-(2,2-dimethylpropyl)-3′,4′-dihydrospiro[cyclobutane-1,2′-pyrano[2,3-b]pyridin]-4′-yl)amino)-1-(3-fluoro-5-(1-methyl-1H-imidazol-2-yl)benzyl)-2-hydroxypropyl)-2-methoxyacetamide]
- IC50 [1, 15]: 0.006 µM
- IC50 [2, 16]: 0.051 µM

Compound: CC#Cc1cccc(C[C@H](NC(=O)[C@@H](C)OC)[C@H](O)CN[C@H]2CC3(CCC3)Oc3ncc(CC(C)C)cc32)c1 [compound 803]
- IC50 [1, 5]: 0.132 µM
- IC50 [2, 6]: 0.022 µM

Compound: CO[C@H](C)C(=O)N[C@@H](Cc1cc(F)cc(Cl)c1)[C@H](O)CN[C@H]1CC2(CCC2)Oc2ccc(CC(C)C)cc21 [compound 805]
- IC50 [1, 5]: 0.07 µM
- IC50 [2, 6]: 0.003 µM

Compound: COCC(=O)N[C@@H](Cc1cccc(-c2nccs2)c1)[C@H](O)CN[C@H]1CC2(CCC2)Oc2cnc(CC(C)(C)C)cc21 [compound 807]
- IC50 [1, 5]: 0.054 µM
- IC50 [2, 6]: 0.019 µM

Compound: CCC(=O)N[C@@H](Cc1ccc2c(c1)OCO2)[C@H](O)CN[C@H]1CC2(CCC2)Oc2ncc(CC(C)(C)C)cc21 [compound 828]
- IC50 [1, 5]: 0.014 µM
- IC50 [2, 6]: 0.012 µM

Compound: C=Cc1cccc(C[C@H](NC(=O)COC)[C@H](O)CN[C@H]2CC3(CCC3)Oc3ncc(CC(C)C)cc32)c1 [compound 832]
- IC50 [1, 5]: 0.038 µM
- IC50 [2, 6]: 0.007 µM

Compound: C#CCCC(=O)N[C@@H](Cc1ccc2c(c1)OCO2)[C@H](O)CN[C@H]1CC2(CCC2)Oc2ncc(CC(C)(C)C)cc21 [compound 843]
- IC50 [1, 5]: 0.065 µM
- IC50 [2, 6]: 0.044 µM

Compound: C#CCCC(=O)N[C@@H](Cc1cccc(F)c1)[C@H](O)CN[C@H]1CC2(CCC2)Oc2ncc(CC(C)(C)C)cc21 [compound 859]
- IC50 [1, 17]: 0.027 µM
- IC50 [2, 6]: 0.004 µM

Compound: COCC(=O)N[C@@H](Cc1cccc(C(N)=O)c1)[C@H](O)CN[C@H]1CC2(CCC2)Oc2ncc(CC(C)(C)F)cc21 [compound 863]
- IC50 [1, 17]: 0.033 µM
- IC50 [2, 6]: 0.013 µM

Compound: COC(OC)C(=O)N[C@@H](Cc1cccc(C(N)=O)c1)[C@H](O)CN[C@H]1CC2(CCC2)Oc2ncc(CC(C)(C)F)cc21 [compound 864]
- IC50 [1, 17]: 0.117 µM
- IC50 [2, 6]: 0.04 µM

Compound: CC(C)C(=O)N[C@@H](Cc1ccc2c(c1)OCO2)[C@H](O)CN[C@H]1CC2(CCC2)Oc2ncc(CC(C)(C)C)cc21 [compound 881]
- IC50 [1, 17]: 0.813 µM
- IC50 [2, 6]: 0.144 µM

Compound: CCO[C@H](C)C(=O)N[C@@H](Cc1ccc2c(c1)OCO2)[C@H](O)CN[C@H]1CC2(CCC2)Oc2ncc(CC(C)(C)C)cc21 [compound 887]
- IC50 [1, 17]: 0.052 µM
- IC50 [2, 6]: 0.102 µM
- HLM ([3]; human liver microsomal data): 37 µL/min/mg
- RLM ([4]; rat liver microsomal data): 136 µL/min/mg

Compound: C#Cc1cc(C[C@H](NC(=O)COC)[C@H](O)CN[C@H]2CC3(CCC3)Oc3ncc(CC(C)(C)C)cc32)cc(-c2nccs2)c1 [compound 889]
- IC50 [1, 17]: 0.989 µM
- IC50 [2, 6]: 0.653 µM

Compound: CC#Cc1cccc(C[C@H](NC(=O)[C@@H](C)OC)[C@H](O)CN[C@H]2CC3(CCC3)Oc3ncc(CC(C)(C)C)cc32)c1 [compound 895]
- IC50 [1, 17]: 0.017 µM
- IC50 [2, 6]: 0.016 µM

Compound: C#Cc1cccc(C[C@H](NC(=O)[C@@H]2CCCO2)[C@H](O)CN[C@H]2CC3(CCC3)Oc3ncc(CC(C)(C)C)cc32)c1 [compound 897]
- IC50 [1, 17]: 0.007 µM
- IC50 [2, 6]: 0.005 µM
- IC50 (CYP2D6; [10]): 3.6 µM
- RLM ([4]; rat liver microsomal data): 55 µL/min/mg

Compound: (2R)—N-((1S,2R)-1-((4-fluorophenyl)methyl)-2-hydroxy-3-(((4′S)-6′-(3,3,3-trifluoropropyl)-3′,4′-dihydrospiro[cyclobutane-1,2′-pyrano[2,3-b]pyridin]-4′-yl)amino)propyl)-2-(methyloxy)propanamide ′(2S)—N-((1S,2R)-1-((4-fluorophenyl)methyl)-2-hydroxy-3-(((4′S)-6′-(3,3,3-trifluoropropyl)-3′,4′-dihydrospiro[cyclobutane-1,2′-pyrano[2,3-b]pyridin]-4′-yl)amino)propyl)-2-(methyloxy)propanamide [compound 192]
- IC50 [1, 18]: 2.03 µM
- IC50 [2, 19]: 1.02 µM

Compound: N-((1S,2R)-1-(1,3-benzodioxol-5-ylmethyl)-3-(((1r,3R,4′S)-6′-(2,2-dimethylpropyl)-3-hydroxy-3′,4′-dihydrospiro[cyclobutane-1,2′-pyrano[2,3-c]pyridin]-4′-yl)amino)-2-hydroxypropyl)acetamide N-((1S,2R)-1-(1,3-benzodioxol-5-ylmethyl)-3-(((1s,3S,4′S)-6′-(2,2-dimethylpropyl)-3-hydroxy-3′,4′-dihydrospiro[cyclobutane-1,2′-pyrano[2,3-c]pyridin]-4′-yl)amino)-2-hydroxypropyl)acetamide [compound 264]
- IC50 [1, 18]: 0.0688 µM
- IC50 [2, 19]: 0.0422 µM

Compound: N-((1S,2R)-1-(4-thiazolylmethyl)-3-(((5′S)-3′-(2,2-dimethylpropyl)-5′,8′-dihydro-6′H-spiro[cyclobutane-1,7′-quinolin]-5′-yl)amino)-2-hydroxypropyl)-2-(methyloxy)acetamide [compound 176]
- IC50 [1, 18]: 0.017 µM
- IC50 [2, 20]: 0.0105 µM

Compound: N-((1S,2R)-1-((3-cyanophenyl)methyl)-3-(((4′S)-6′-(2,2-dimethylpropyl)-3′,4′-dihydrospiro[cyclobutane-1,2′-pyrano[2,3-b]pyridin]-4′-yl)amino)-2-hydroxypropyl)-1-cyclobutyl-4,4-dimethyl-5-oxo-3-pyrrolidinecarboxamide [compound 60]
- IC50 [1, 18]: 0.0631 µM
- IC50 [2, 20]: 0.0211 µM
